The text below walks through data of ChEMBL document CHEMBL1124318, “Quinazoline antifolates inhibiting thymidylate synthase: synthesis of four oligo(L-gamma-glutamyl) conjugates of N10-propargyl-5,8-dideazafolic acid and their enzyme inhibition” (J Med Chem, 1989).

Molecules are shown by their SMILES.

In the first assay the target is T1, Thymidylate synthase (Homo sapiens, UniProt P04818). As to the kind of experiment: Fold increase of inhibition of human thymidylate synthase from that of control.
Conditions: not given
Target sequence in this assay (P04818 2-313 limits assumed): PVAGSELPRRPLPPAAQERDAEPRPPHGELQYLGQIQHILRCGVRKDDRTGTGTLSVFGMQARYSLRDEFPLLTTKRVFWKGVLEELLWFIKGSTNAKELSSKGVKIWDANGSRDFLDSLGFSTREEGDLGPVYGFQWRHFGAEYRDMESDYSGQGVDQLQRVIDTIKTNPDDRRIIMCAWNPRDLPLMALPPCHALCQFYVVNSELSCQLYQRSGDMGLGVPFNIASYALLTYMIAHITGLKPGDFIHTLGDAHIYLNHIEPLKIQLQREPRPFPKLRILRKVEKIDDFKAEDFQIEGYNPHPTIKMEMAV
Molecule `C#CCN(Cc1ccc2nc(N)nc(O)c2c1)c1ccc(C(=O)NC(CCC(=O)NC(CCC(=O)NC(CCC(=O)NC(CCC(=O)O)C(=O)O)C(=O)O)C(=O)O)C(=O)O)cc1` (stereo not drawn) returned a Fold increase of 171.

`C#CCN(Cc1ccc2nc(N)nc(O)c2c1)c1ccc(C(=O)NC(CCC(=O)NC(CCC(=O)NC(CCC(=O)O)C(=O)O)C(=O)O)C(=O)O)cc1` (stereo not drawn) showed a Fold increase of 97. In turn, `C#CCN(Cc1ccc2nc(N)nc(O)c2c1)c1ccc(C(=O)NC(CCC(=O)NC(CCC(=O)NC(CCC(=O)NC(CCC(=O)NC(CCC(=O)O)C(=O)O)C(=O)O)C(=O)O)C(=O)O)C(=O)O)cc1` (stereo not drawn) gave a Fold increase of 167.

For `C#CCN(Cc1ccc2nc(N)nc(O)c2c1)c1ccc(C(=O)NC(CCC(=O)NC(CCC(=O)O)C(=O)O)C(=O)O)cc1` (stereo not drawn), the Fold increase was 31.

A further assay concerns the target T1, Thymidylate synthase. As to the kind of experiment: Compound was tested for inhibition of human (WI-L2) thymidylate synthase. Particulars: read-out: Ki app.
Target sequence in this assay (P04818 whole entry): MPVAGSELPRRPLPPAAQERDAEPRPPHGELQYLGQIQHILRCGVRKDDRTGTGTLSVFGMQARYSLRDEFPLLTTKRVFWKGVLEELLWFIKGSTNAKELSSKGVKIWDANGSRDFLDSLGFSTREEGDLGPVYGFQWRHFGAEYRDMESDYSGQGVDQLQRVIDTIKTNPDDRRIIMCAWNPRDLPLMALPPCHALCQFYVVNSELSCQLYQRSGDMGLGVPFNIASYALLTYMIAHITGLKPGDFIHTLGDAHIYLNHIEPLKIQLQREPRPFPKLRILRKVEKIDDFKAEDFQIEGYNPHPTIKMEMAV
For `C#CCN(Cc1ccc2nc(N)nc(O)c2c1)c1ccc(C(=O)NC(CCC(=O)NC(CCC(=O)NC(CCC(=O)O)C(=O)O)C(=O)O)C(=O)O)cc1` (stereo not drawn), the Ki came out at 0.072 nM. On to `C#CCN(Cc1ccc2nc(N)[nH]c(=O)c2c1)c1ccc(C(=O)NC(CCC(=O)NC(CCC(=O)NC(CCC(=O)NC(CCC(=O)O)C(=O)O)C(=O)O)C(=O)O)C(=O)O)cc1` (stereo not drawn), for which the Ki came to 0.041 nM. Take `C#CCN(Cc1ccc2nc(N)[nH]c(=O)c2c1)c1ccc(C(=O)NC(CCC(=O)NC(CCC(=O)NC(CCC(=O)NC(CCC(=O)NC(CCC(=O)O)C(=O)O)C(=O)O)C(=O)O)C(=O)O)C(=O)O)cc1` (stereo not drawn): the Ki was determined as 0.042 nM.

Consider `C#CCN(Cc1ccc2nc(N)[nH]c(=O)c2c1)c1ccc(C(=O)NC(CCC(=O)NC(CCC(=O)O)C(=O)O)C(=O)O)cc1` (stereo not drawn), for which the Ki worked out at 0.224 nM.
